{"source": "patent US5045531A", "about": "“Wound treatment employing biologically active ion channel forming peptides and proteins” (Magainin Sciences Inc., priority 1989, dated 1991)", "key": {"[1]": {"tested_on": "cortisone inhibition of wound healing", "conditions": "antagonism of cortisone-inhibited wound healing; cited from earlier work"}, "[2]": {"tested_on": "polyvinylchloride sponge disc implants (wound healing)", "experiment": "Wound breaking strength of rejoined sponge disc halves implanted in rats", "type": "in vivo, rat", "conditions": "at seven days, control group 440 g", "description": "(§1) Twenty-two male rats weighing between 300 g and 325 g were anesthetized, after which their backs and abdomens were shaved and washed with 70% ethanol. Three modified polyvinylchloride sponge discs 2 mm thick and 15 mm in diameter were implanted in each rat abdominally in subcutaneous pockets made under the skin. Two of the implants were cut in half and rejoined before the implantation, and the remaining disc was sandwiched between two silicone discs which forced granulation tissue infiltration to occur from the periphery of the disc. A single 15 mm×15 mm square full excision wound was made on the back and the wound edges tattooed.\n(§2) The rats were then divided into four groups. A first, or control, group of four rats received sham injections daily. A second group of four rats received daily intramuscular injections of 10 mg of cortisone acetate. Cortisone is known to be an inhibitor of wound healing. A third group of seven rats received daily intramuscular injections of 0.3 mg of amide-terminated Magainin II. A fourth group of seven rats received daily intramuscular injections of 10 mg of cortisone acetate and 0.3 mg of Magainin II at separate sites. At seven days, rat weights were recorded, wound sizes measured, and the implants harvested. The staple which joined the two disc halves together was carefully removed and the breaking strength measured. Collagen content from the implant halves from each treatment group was measured by weighing the pepsin extracted native collagen. The sponge halves are homogenized in 0.5M ice-cold acetic acid containing 0.1 mg of pepsin per ml. The homogenate was stirred for 24 hours at 4° C., centrifuged, and supernatants saved. The native solubilized collagen was isolated by adding sodium chloride to 10 % w/v. The salt precipitate was collected by centrifugation (10,000× g for 10 min.) and then taken up in 145 mM potassium phosphate buffer pH7.6, exhaustively dialyzed against 1 mM HCl, lyophilized and its dry weight recorded. Confirmation of collagen purity was made by SDS polyacrylamide gel electrophoresis. […]"}, "[3]": {"tested_on": "polyvinylchloride sponge disc implants (wound healing)", "experiment": "Collagen content of subcutaneous polyvinylchloride sponge disc implants in rats (pepsin extracted native collagen)", "type": "in vivo, rat", "conditions": "at seven days, control group 3.43 mg/sponge", "description": "as §1, §2"}, "full excision wound": {"tested_on": "full excision wound", "experiment": "Wound contraction of 15 mm x 15 mm square full excision wound on the back of rats", "type": "in vivo, rat", "conditions": "for average wound contraction: at seven days, control group 67%", "description": "as §1\nThe rats were then divided into four groups. A first, or control, group of four rats received sham injections daily. A second group of four rats received daily intramuscular injections of 10 mg of cortisone acetate. Cortisone is known to be an inhibitor of wound healing. A third group of seven rats received daily intramuscular injections of 0.3 mg of amide-terminated Magainin II. A fourth group of seven rats received daily intramuscular injections of 10 mg of cortisone acetate and 0.3 mg of Magainin II at separate sites. At seven days, rat weights were recorded, wound sizes measured, and the implants harvested. The staple which joined the two disc halves together was carefully removed and the breaking strength measured. Collagen content from the implant halves from each treatment group was measured by weighing the pepsin extracted native collagen. The sponge halves are homogenized in 0.5M ice-cold acetic acid containing 0.1 mg of pepsin per ml. The homogenate was stirred for 24 hours at 4° C., centrifuged, and supernatants saved. The native solubilized collagen was isolated by adding sodium chloride to 10 % w/v. The salt precipitate was collected by centrifugation (10,000× g for 10 min.) and then taken up in 145 mM potassium phosphate buffer pH7.6, exhaustively dialyzed against 1 mM HCl, lyophilized and its dry weight recorded. Confirmation of collagen purity was made by SDS polyacrylamide gel electrophoresis. Pepsin digestion extracts only native collagen, needed for the formation of collagen fibers. The accumulations of collagen in the early stages of healing are responsible for gain in wound tensile strength. Collagen content from the implants taken from the group treated with cortisone acetate alone averged 0.82 mg/sponge, as compared with 3.43 mg/sponge for the control group."}, "[4]": {"conditions": "cortisone acetate alone, 10 mg daily intramuscular"}, "[5]": {"conditions": "0.3 mg Magainin II plus 10 mg cortisone acetate daily intramuscular at separate sites"}, "[6]": {"conditions": "Magainin II alone, 0.3 mg daily intramuscular"}}, "note": "No end group written: not given here.", "data": [{"compound": "growth hormone: other antagonist of cortisone inhibition of wound healing", "values": [{"measurement": "restoring connective tissue deposition", "setting": "[1]", "result": "effective in restoring connective tissue deposition"}, {"measurement": "restoring wound contraction", "setting": "[1]", "result": "ineffective in restoring wound contraction"}]}, {"compound": "Vitamin A", "values": [{"measurement": "restoring connective tissue deposition", "setting": "[1]", "result": "effective in restoring connective tissue deposition"}, {"measurement": "restoring wound contraction", "setting": "[1]", "result": "ineffective in restoring wound contraction"}]}, {"compound": "CC(=O)OCC(=O)[C@@]1(O)CC[C@H]2[C@@H]3CCC4=CC(=O)CC[C@]4(C)[C@H]3C(=O)C[C@@]21C", "note": "[cortisone acetate]", "values": [{"measurement": "average wound breaking strength", "setting": "[2]; [4]", "result": 195, "unit": "g"}, {"measurement": "average collagen content", "setting": "[3]; [4]", "result": 0.82, "unit": "mg/sponge"}, {"measurement": "average wound contraction", "setting": "full excision wound; [4]", "result": 28, "unit": "%"}]}, {"compound": "GIGKFLHSAKKFGKAFVGEIMNS-NH2 [Magainin II]", "values": [{"measurement": "average wound breaking strength", "setting": "[2]; [5]", "result": 320, "unit": "g"}, {"measurement": "average wound breaking strength", "setting": "[2]; [6]", "result": 415, "unit": "g"}, {"measurement": "average collagen content", "setting": "[3]; [5]", "result": 3.20, "unit": "mg/sponge"}, {"measurement": "average collagen content", "setting": "[3]; [6]", "result": 3.82, "unit": "mg/sponge"}, {"measurement": "average wound contraction", "setting": "full excision wound; [5]", "result": 53, "unit": "%"}, {"measurement": "average wound contraction", "setting": "full excision wound; [6]", "result": 65, "unit": "%"}, {"measurement": "effect on cortisone inhibition of wound healing (collagen deposition and wound contraction)", "setting": "full excision wound; rats given cortisone acetate and Magainin II, conclusion in words", "result": "antagonistic of cortisone inhibition of wound healing"}]}]}
